One molecule from US5753240A, “Fluorinated compounds and compositions comprising them” (L'Oreal, priority 1994, dated 1998) can be followed below.

Common to all, as to assay type: physicochemical
Series [1] in a line: Thickening effect of Example 1 on various vehicles: Perhydrosqualene. To be noted: 0.2% in Perhydrosqualene. On the procedure: (§1) The thickening of the medium can be carried out by completely dissolving the fluorinated compound of formula I, at a temperature ranging from 20° C. to 80° C., and then by allowing the mixture to stand until it is completely thickened.
(§2) Thickening effect of Example 1 on various vehicles
(§3) Gelled media were thus obtained.

A short description of series [2]: Thickening effect of Example 1 on various vehicles: Petroleum jelly. The settings on record: 0.2% in Petroleum jelly. On the procedure: as §1, §2, §3
The nature of series [3]: Thickening effect of Example 1 on various vehicles: Sunflower oil. The settings on record: 0.2% in Sunflower oil. As to the method: as §1, §2
(§4) As is evident, Sunflower refers to Sunflower oil and Parleam refers to Parleam oil. Eutanol G is a tradename for octyldodecanol and is manufactured by Henkel.
as §3

Series [4] is described as follows: Thickening effect of Example 1 on various vehicles: Parleam oil. The settings on record: 0.2% in Parleam oil. On the procedure: as §1, §2, §4, §3
Series [5] in a line: Thickening effect of Example 1 on various vehicles: Olive oil. To be noted: 0.2% in Olive oil. As to the method:
as §1, §2, §3

A short description of series [6]: Stability of the thickened (gelled) media over time. The settings on record: over a period of over 6 months.
Description: as §3

Molecules are shown by their SMILES.

Regarding `CCCCCCCCCCCCCCCCOC(=O)NCCCCCCCCCCC(=O)OCCC(F)(F)C(F)(F)C(F)(F)C(F)(F)C(F)(F)C(F)(F)C(F)(F)C(F)(F)F` [Example 1, 2-(F-octyl)ethyl 11-(N-hexadecyloxycarbonyl)aminoundecanoate], the Thickening effect result in series [1], in series [2], in series [3], in series [4] and in series [5] was “no effect” throughout. Moreover, the “Stability of thickened media” value in series [6] was “perfect stability”.
